Source: ChEMBL document CHEMBL4507265 (2021)

Tests used:
[1] = target: Calcium/calmodulin-dependent protein kinase type II subunit alpha (Homo sapiens) (UniProt Q9UQM7); details: Compound concentration 1000.0 nM
[2] = target: Tyrosine-protein kinase JAK3 (Homo sapiens) (UniProt P52333); details: Compound concentration 1000.0 nM
[3] = target: cAMP-dependent protein kinase catalytic subunit PRKX (Homo sapiens) (UniProt P51817); details: Compound concentration 1000.0 nM
[4] = target: Myotonin-protein kinase (Homo sapiens) (UniProt Q09013); details: Compound concentration 1000.0 nM
[5] = target: Homeodomain-interacting protein kinase 4 (Homo sapiens) (UniProt Q8NE63); details: Compound concentration 1000.0 nM
[6] = target: Tyrosine-protein kinase TXK (Homo sapiens) (UniProt P42681); details: Compound concentration 1000.0 nM
[7] = target: Fibroblast growth factor receptor 1 (Homo sapiens) (UniProt P11362); details: Compound concentration 1000.0 nM
[8] = target: Mitogen-activated protein kinase kinase kinase 12 (Homo sapiens) (UniProt Q12852); details: Compound concentration 1000.0 nM
[9] = target: Discoidin domain-containing receptor 2 (Homo sapiens) (UniProt Q16832); details: Compound concentration 1000.0 nM
[10] = target: Mitogen-activated protein kinase 3 (Homo sapiens) (UniProt P27361); details: Compound concentration 1000.0 nM
[11] = target: Ribosomal protein S6 kinase alpha-2 (Homo sapiens) (UniProt Q15349); details: Compound concentration 1000.0 nM
[12] = target: Mitogen-activated protein kinase kinase kinase 1 (Homo sapiens) (UniProt Q13233); details: Compound concentration 1000.0 nM
[13] = target: Cyclin-dependent kinase 7 (Homo sapiens) (UniProt P50613); details: Compound concentration 1000.0 nM
[14] = tested on: Epidermal growth factor receptor (Homo sapiens), P00533 [UNDEFINED MUTATION]; details: Compound concentration 1000.0 nM
[15] = target: Serine/threonine-protein kinase MRCK alpha (Homo sapiens) (UniProt Q5VT25); details: Compound concentration 1000.0 nM
[16] = target: Transient receptor potential cation channel subfamily M member 6 (Homo sapiens) (UniProt Q9BX84); details: Compound concentration 1000.0 nM
[17] = tested on: Tyrosine-protein kinase ABL1 (Homo sapiens), P00519 [Y253F]; details: Compound concentration 1000.0 nM
[18] = target: Calcium/calmodulin-dependent protein kinase kinase 1 (Homo sapiens) (UniProt Q8N5S9); details: Compound concentration 1000.0 nM
[19] = tested on: Serine/threonine-protein kinase B-raf (Homo sapiens), P15056 [V600E]; details: Compound concentration 1000.0 nM
[20] = target: Phosphatidylinositol 4-phosphate 5-kinase type-1 alpha (Homo sapiens) (UniProt Q99755); details: Compound concentration 1000.0 nM
[21] = target: Sodium-dependent noradrenaline transporter (Homo sapiens) (UniProt P23975); details: Compound concentration 10.0 uM
[22] = target: Mitogen-activated protein kinase kinase kinase 9 (Homo sapiens) (UniProt P80192); details: Compound concentration 1000.0 nM
[23] = target: Mitogen-activated protein kinase kinase kinase kinase 3 (Homo sapiens) (UniProt Q8IVH8); details: Compound concentration 1000.0 nM
[24] = tested on: Fibroblast growth factor receptor 3 (Homo sapiens), P22607 [G697C]; details: Compound concentration 1000.0 nM
[25] = target: Aurora kinase A (Homo sapiens) (UniProt O14965); details: Compound concentration 1000.0 nM
[26] = target: Serine/threonine-protein kinase TAO1 (Homo sapiens) (UniProt Q7L7X3); details: Compound concentration 1000.0 nM
[27] = target: Atypical kinase COQ8A, mitochondrial (Homo sapiens) (UniProt Q8NI60); details: Compound concentration 1000.0 nM
[28] = tested on: Tyrosine-protein kinase ABL1 (Homo sapiens), P00519 [F317I]; details: Compound concentration 1000.0 nM
[29] = target: Serine/threonine-protein kinase TNNI3K (Homo sapiens) (UniProt Q59H18); details: Compound concentration 1000.0 nM
[30] = target: Cyclin-dependent kinase 4 (Homo sapiens) (UniProt P11802); details: Compound concentration 1000.0 nM
[31] = tested on: Proto-oncogene tyrosine-protein kinase receptor Ret (Homo sapiens), P07949 [M918T]; details: Compound concentration 1000.0 nM
[32] = target: Tyrosine-protein kinase Fer (Homo sapiens) (UniProt P16591); details: Compound concentration 1000.0 nM
[33] = target: Calcium/calmodulin-dependent protein kinase type II subunit delta (Homo sapiens) (UniProt Q13557); details: Compound concentration 1000.0 nM
[34] = target: Calcium-dependent protein kinase 1 (Plasmodium falciparum) (UniProt P62344); details: Compound concentration 1000.0 nM
[35] = target: D(1B) dopamine receptor (Homo sapiens) (UniProt P21918); details: Compound concentration 10.0 uM
[36] = target: Cyclin-dependent kinase 8 (Homo sapiens) (UniProt P49336); details: Compound concentration 1000.0 nM
[37] = tested on: ALK tyrosine kinase receptor (Homo sapiens), Q9UM73 [C1156Y]; details: Compound concentration 1000.0 nM
[38] = tested on: Phosphatidylinositol 4,5-bisphosphate 3-kinase catalytic subunit alpha isoform (Homo sapiens), P42336 [C420R]; details: Compound concentration 1000.0 nM
[39] = target: BMP-2-inducible protein kinase (Homo sapiens) (UniProt Q9NSY1); details: Compound concentration 1000.0 nM
[40] = tested on: Receptor-type tyrosine-protein kinase FLT3 (Homo sapiens), P36888 [D835H]; details: Compound concentration 1000.0 nM
[41] = target: Sigma intracellular receptor 2 (Homo sapiens, UniProt Q5BJF2); details: Compound concentration 10.0 uM
[42] = target: Serine/threonine-protein kinase BRSK1 (Homo sapiens) (UniProt Q8TDC3); details: Compound concentration 1000.0 nM
[43] = target: Ribosomal protein S6 kinase alpha-3 (Homo sapiens) (UniProt P51812); details: Compound concentration 1000.0 nM
[44] = target: Receptor-interacting serine/threonine-protein kinase 2 (Homo sapiens) (UniProt O43353); details: Compound concentration 1000.0 nM
[45] = target: Serine/threonine-protein kinase 35 (Homo sapiens) (UniProt Q8TDR2); details: Compound concentration 1000.0 nM

Sigma intracellular receptor 2, sequence (Q5BJF2 whole entry): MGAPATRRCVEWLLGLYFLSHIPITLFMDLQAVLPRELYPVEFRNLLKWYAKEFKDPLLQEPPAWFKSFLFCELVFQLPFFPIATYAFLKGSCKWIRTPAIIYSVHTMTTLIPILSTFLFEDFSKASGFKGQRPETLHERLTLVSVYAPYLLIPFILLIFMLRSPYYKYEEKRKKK
Serine/threonine-protein kinase TNNI3K (Homo sapiens), sequence (Q59H18 whole entry): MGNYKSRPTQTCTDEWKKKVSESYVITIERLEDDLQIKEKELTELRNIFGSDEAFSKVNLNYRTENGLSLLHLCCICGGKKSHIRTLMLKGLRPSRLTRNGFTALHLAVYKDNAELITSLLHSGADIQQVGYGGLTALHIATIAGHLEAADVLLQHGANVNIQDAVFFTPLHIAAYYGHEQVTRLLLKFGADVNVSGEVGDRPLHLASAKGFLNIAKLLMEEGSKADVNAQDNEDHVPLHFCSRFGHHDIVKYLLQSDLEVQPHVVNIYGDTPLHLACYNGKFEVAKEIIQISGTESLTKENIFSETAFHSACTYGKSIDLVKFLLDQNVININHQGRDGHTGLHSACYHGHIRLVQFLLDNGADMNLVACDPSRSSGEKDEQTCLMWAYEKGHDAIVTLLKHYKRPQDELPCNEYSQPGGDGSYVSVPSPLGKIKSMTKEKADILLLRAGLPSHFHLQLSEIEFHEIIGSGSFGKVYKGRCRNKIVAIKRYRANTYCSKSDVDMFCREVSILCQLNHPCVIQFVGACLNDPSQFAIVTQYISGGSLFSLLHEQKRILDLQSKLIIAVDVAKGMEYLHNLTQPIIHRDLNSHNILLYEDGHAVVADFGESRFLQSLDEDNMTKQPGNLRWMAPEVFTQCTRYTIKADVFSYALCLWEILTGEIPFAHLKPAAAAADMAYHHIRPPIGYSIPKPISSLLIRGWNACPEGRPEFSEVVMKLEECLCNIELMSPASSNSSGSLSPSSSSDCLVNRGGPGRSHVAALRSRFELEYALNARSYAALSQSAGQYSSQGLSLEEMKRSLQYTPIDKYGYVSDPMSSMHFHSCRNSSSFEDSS
Discoidin domain-containing receptor 2 (Homo sapiens), sequence (Q16832 whole entry, the tested form may be a part): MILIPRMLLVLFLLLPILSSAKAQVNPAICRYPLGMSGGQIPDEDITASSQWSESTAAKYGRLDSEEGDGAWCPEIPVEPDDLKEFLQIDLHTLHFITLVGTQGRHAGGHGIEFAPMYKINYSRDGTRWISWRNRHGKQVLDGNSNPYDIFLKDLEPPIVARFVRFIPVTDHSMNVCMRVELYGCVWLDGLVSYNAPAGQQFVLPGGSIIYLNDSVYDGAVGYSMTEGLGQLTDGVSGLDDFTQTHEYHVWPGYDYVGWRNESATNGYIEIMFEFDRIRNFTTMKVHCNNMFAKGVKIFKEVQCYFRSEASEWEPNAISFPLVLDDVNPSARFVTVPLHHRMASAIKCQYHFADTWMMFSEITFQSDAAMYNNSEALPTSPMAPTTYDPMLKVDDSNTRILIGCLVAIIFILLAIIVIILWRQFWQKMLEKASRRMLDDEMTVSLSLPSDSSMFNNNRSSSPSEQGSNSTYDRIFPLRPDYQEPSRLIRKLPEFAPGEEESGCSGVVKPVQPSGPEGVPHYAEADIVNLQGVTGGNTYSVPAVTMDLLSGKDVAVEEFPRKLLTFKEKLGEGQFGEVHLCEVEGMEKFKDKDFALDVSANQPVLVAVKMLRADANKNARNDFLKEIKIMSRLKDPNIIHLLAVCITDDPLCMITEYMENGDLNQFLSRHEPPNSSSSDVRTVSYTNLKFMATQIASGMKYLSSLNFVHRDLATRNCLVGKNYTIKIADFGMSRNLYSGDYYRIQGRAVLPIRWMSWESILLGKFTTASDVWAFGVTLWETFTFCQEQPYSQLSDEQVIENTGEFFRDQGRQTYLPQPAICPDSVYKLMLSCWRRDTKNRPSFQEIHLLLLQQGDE
Epidermal growth factor receptor (Homo sapiens), P00533 [UNDEFINED MUTATION], sequence (P00533 whole entry, looked up, change not shown): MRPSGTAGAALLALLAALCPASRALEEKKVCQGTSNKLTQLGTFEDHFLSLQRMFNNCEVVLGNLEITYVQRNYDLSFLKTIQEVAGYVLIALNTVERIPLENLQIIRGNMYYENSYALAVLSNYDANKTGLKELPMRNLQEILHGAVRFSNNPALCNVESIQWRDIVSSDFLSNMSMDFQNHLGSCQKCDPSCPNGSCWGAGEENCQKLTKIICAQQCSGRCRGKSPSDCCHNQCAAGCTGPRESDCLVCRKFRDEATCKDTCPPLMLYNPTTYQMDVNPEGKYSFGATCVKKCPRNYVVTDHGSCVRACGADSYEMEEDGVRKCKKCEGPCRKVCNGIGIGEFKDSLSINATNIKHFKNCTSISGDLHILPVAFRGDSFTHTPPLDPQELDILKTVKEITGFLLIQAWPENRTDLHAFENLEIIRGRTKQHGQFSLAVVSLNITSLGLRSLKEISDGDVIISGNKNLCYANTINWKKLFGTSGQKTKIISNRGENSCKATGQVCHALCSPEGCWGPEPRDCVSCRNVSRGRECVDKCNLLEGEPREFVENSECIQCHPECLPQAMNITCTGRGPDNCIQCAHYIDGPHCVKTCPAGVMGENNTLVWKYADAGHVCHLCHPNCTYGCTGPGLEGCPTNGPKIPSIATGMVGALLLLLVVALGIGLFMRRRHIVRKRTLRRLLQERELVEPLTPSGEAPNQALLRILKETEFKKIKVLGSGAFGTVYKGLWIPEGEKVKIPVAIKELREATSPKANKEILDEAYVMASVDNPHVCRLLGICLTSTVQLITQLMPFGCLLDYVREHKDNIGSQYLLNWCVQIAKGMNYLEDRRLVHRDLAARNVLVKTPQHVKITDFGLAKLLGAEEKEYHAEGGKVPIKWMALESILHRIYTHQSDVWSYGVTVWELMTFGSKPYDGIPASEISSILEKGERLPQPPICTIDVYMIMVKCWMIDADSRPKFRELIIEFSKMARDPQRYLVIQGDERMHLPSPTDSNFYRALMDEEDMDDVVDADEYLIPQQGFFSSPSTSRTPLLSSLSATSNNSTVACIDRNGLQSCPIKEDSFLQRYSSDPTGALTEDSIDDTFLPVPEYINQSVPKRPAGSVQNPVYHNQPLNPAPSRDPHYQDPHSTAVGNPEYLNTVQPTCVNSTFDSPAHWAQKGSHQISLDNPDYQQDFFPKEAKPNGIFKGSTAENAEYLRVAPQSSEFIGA
Atypical kinase COQ8A, mitochondrial (Homo sapiens), sequence (Q8NI60 163-647 limits assumed): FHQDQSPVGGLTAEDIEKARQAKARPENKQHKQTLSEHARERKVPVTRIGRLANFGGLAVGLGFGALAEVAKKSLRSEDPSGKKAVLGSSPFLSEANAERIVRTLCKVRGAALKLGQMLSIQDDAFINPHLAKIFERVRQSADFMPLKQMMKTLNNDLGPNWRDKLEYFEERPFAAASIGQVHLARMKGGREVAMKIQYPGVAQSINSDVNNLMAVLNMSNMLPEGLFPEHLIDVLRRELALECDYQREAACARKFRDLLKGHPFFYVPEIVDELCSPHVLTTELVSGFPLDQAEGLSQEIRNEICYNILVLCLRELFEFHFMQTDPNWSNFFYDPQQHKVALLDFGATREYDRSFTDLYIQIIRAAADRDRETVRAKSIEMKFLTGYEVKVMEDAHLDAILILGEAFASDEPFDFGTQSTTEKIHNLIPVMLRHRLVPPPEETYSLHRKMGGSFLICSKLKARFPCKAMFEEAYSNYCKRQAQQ
cAMP-dependent protein kinase catalytic subunit PRKX (Homo sapiens), sequence (P51817 whole entry): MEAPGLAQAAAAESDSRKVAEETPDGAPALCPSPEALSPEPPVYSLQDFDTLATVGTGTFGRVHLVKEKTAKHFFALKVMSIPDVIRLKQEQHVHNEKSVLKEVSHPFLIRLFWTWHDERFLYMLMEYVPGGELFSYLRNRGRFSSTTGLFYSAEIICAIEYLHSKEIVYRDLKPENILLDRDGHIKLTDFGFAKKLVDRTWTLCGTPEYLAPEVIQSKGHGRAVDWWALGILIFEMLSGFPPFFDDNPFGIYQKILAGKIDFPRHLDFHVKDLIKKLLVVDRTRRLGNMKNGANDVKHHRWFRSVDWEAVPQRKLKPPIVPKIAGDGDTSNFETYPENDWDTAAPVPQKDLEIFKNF
Ribosomal protein S6 kinase alpha-2 (Homo sapiens), sequence (Q15349 whole entry): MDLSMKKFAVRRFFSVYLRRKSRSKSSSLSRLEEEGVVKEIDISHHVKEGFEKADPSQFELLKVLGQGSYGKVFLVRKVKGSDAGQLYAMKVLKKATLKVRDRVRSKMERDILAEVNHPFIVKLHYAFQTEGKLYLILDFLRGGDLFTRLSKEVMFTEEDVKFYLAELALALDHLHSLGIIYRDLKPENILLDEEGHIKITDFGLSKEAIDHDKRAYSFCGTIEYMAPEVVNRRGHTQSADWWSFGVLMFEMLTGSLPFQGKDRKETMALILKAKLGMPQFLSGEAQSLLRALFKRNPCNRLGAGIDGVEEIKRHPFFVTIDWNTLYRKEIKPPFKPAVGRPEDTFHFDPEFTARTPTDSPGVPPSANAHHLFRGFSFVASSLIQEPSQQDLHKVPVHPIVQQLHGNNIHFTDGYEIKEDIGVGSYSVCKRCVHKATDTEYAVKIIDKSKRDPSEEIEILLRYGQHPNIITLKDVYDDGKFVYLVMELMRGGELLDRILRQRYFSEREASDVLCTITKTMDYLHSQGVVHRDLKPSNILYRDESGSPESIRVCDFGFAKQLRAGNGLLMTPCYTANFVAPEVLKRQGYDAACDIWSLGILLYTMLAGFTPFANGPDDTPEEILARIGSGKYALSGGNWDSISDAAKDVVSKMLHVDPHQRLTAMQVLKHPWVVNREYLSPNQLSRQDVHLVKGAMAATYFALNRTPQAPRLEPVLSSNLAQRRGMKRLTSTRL
Mitogen-activated protein kinase 3 (Homo sapiens), sequence (P27361 whole entry): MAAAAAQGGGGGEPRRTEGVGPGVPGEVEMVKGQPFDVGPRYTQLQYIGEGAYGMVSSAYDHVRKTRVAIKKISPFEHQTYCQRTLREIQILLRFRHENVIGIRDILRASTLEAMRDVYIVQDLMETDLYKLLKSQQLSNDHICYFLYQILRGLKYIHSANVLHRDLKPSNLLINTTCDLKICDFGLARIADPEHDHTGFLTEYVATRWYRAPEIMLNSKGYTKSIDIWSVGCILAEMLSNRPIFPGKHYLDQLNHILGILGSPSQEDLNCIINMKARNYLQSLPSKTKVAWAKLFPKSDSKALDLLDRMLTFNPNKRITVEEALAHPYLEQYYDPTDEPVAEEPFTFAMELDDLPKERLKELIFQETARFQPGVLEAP

NS(=O)(=O)c1cc(NC(=O)C2(c3ccccc3Cl)CC2)ccc1Oc1cccc(Cl)c1 [BAY-207]
residual activity [1]: 97%
residual activity [2]: 64%
residual activity [3]: 77%
residual activity [4]: 79%
residual activity [5]: 58%
residual activity [6]: 90%
residual activity [7]: 100%
residual activity [8]: 100%
residual activity [9]: 96%
residual activity [10]: 76%
residual activity [11]: 91%
residual activity [12]: 100%
residual activity [13]: 82%
residual activity [14]: 46%
residual activity [15]: 95%
residual activity [16]: 95%
residual activity [17]: 69%
residual activity [18]: 100%
residual activity [19]: 74%
residual activity [20]: 100%
inhibition [21]: 22.4%
residual activity [22]: 67%
residual activity [23]: 100%
residual activity [24]: 100%
residual activity [25]: 100%
residual activity [26]: 91%
residual activity [27]: 100%
residual activity [28]: 96%
residual activity [29]: 72%
residual activity [30]: 70%
residual activity [31]: 71%
residual activity [32]: 83%
residual activity [33]: 100%
residual activity [34]: 89%
inhibition [35]: 20.8%
residual activity [36]: 91%
residual activity [37]: 100%
residual activity [38]: 100%
residual activity [39]: 74%
residual activity [40]: 47%
inhibition [41]: 82%
residual activity [42]: 82%
residual activity [43]: 92%
residual activity [44]: 93%
residual activity [45]: 94%

NS(=O)(=O)c1cc(NC(=O)Cc2ccccc2)ccc1Oc1cccc(Cl)c1 [BAY-1797]
residual activity [1]: 96%
residual activity [2]: 96%
residual activity [3]: 91%
residual activity [4]: 100%
residual activity [5]: 100%
residual activity [6]: 92%
residual activity [7]: 100%
residual activity [8]: 80%
residual activity [9]: 87%
residual activity [10]: 94%
residual activity [11]: 100%
residual activity [12]: 66%
residual activity [13]: 64%
residual activity [14]: 58%
residual activity [15]: 91%
residual activity [16]: 84%
residual activity [17]: 76%
residual activity [18]: 100%
residual activity [19]: 89%
residual activity [20]: 100%
inhibition [21]: 0.53%
residual activity [22]: 100%
residual activity [23]: 100%
residual activity [24]: 100%
residual activity [25]: 69%
residual activity [26]: 93%
residual activity [27]: 94%
residual activity [28]: 51%
residual activity [29]: 91%
residual activity [30]: 71%
residual activity [31]: 83%
residual activity [32]: 73%
residual activity [33]: 97%
residual activity [34]: 91%
inhibition [35]: 27.7%
residual activity [36]: 68%
residual activity [37]: 88%
residual activity [38]: 62%
residual activity [39]: 94%
residual activity [40]: 98%
inhibition [41]: 59.5%
residual activity [42]: 91%
residual activity [43]: 72%
residual activity [44]: 94%
residual activity [45]: 99%
